# In a melting point compilation (Tetko et al.; mined from patent text by program, amines drawn as free bases though some values may be those of a salt):
row,SMILES,melting point
1,CCOCCN(CCOCC)C(=O)c1n[nH]c2c(=O)[nH]c3cc(Cl)ccc3c(=O)c12,202 °C
2,COCCOCOc1ccc(C(=O)c2nc3ccc(OCOCCOC)cc3s2)cc1,46 °C
3,CC(C(O)c1ccc(O[Si](C(C)C)(C(C)C)C(C)C)c(F)c1)N1CCC(O)(c2ccc(F)cc2)CC1 (centres undefined),159 to 160 °C
4,CN(C)CCNC(=O)N1CCN(c2ccc(C(N)=O)cc2)CC1,193 to 195 °C
5,Oc1ccc(-c2nn(-c3cc(Cl)ccc3Cl)c3cc(O)ccc23)c(O)c1,78 to 80 °C
6,O=C(Nc1ccc(C(F)(F)F)cc1)c1cc(-c2ccc(F)cc2F)ccc1O,227 to 228 °C
7,O=C(c1ccc(Cl)cc1)c1cccc(Cl)c1[N+](=O)[O-],147 to 148 °C
8,CCn1nc(-c2ccccc2)c(C(C)=O)c(Nc2cc(Br)cc3cccnc23)c1=O,147 to 148 °C
9,CCCCCCCCCCCCCC(=O)NN(C)C,63.5 to 64.5 °C
10,Cc1noc(C)c1COc1ccc(-c2cc(O)c(SCCc3ccccc3)c(=O)o2)cc1,152 to 154 °C
11,CCC1CCCCn2c1nc(-c1ccncn1)cc2=O (racemic),128 to 130 °C
12,Cc1ccc2nc(NC3=NCCN3)[nH]c2c1,264 to 266 °C
13,O=C(c1ccc(Cl)cc1)c1ccc(CBr)cc1Cl,88 to 90 °C
14,O=C(O)C=Cc1ccc(O)c(Cl)c1,180 to 182 °C
15,CCNC(=O)c1sc(SC)c2c1CCc1sc(-c3ccccc3)nc1-2,211 to 212 °C
16,CN(C)C1(c2ccccc2)CCC2(OCCc3c2[nH]c2ccc(F)cc32)C(Cc2cccc(F)c2)C1 (centres undefined),133 to 135 °C
17,CCOC(=O)Cc1sc(Sc2cccc(C(F)(F)F)n2)nc1C,56 to 57 °C
18,O=c1c2c([nH]n1-c1ccc(Cl)cc1F)CCCCC2,197 to 201 °C
19,CN1c2ccccc2CC1c1ccccc1NC(=O)C(C)(C)C (centres undefined),133 to 135 °C
20,CNc1nc2ccc(OC(F)(F)F)cc2s1,162 °C
21,CCCCNc1nc2cccc(C(=O)OC)c2n1Cc1ccc(-c2ccccc2-c2nnn[nH]2)cc1,163 to 167 °C
22,OCC(O)Cc1c(OCc2ccccc2)ccc2ncccc12 (centres undefined),160 to 162 °C
23,Cc1ccc(N2CCN(CCC3CN(C)C(=O)O3)CC2)cc1 (centres undefined),96 to 97 °C
24,OCC1=CC=C(COc2cc(C(F)(F)F)ccc2Cl)SS1,94.2 to 96 °C
25,COc1cc2c(cc1OC)CN(CCCNS(=O)(=O)c1cc(Cl)c(F)cc1F)CC2,110 to 112 °C
26,CN(C)C1(c2ccccc2)CCC(c2c[nH]c3ncccc23)CC1 (centres undefined),130 to 133 °C

# Second part, the compound after the results:
row,melting point,SMILES
1,177 to 178 °C,O=C(O)CC1C2=C(CCCC2)C(=O)N1c1ccc(Cl)cc1 (centres undefined)
2,58 to 59 °C,COc1ccc(C2(C#Cc3ccc([N+](=O)[O-])cc3)CCC3(CC2)OCCO3)cc1OC1CCCC1
3,196 to 198 °C,CCCCCCCNC(=O)c1ccccc1CN1C(=O)C2(COc3cc4c(cc32)CCO4)c2ccccc21 (centres undefined)
4,202 °C,CC(C)(C)OC(=O)[C@H]1C[C@@H](S(=O)(=O)c2ccccc2F)[C@@H](c2ccccc2F)N1 (racemic)
5,210 to 211 °C,O=C(O)c1cccc2ccc(CBr)cc12
6,85 to 86 °C,O=[N+]([O-])c1cc(Cl)c(Cl)cc1NC1C=CCC1 (centres undefined)
7,60 to 62 °C,C[C@@H]1C[C@H](CC2CCCCC2)C(=O)O1 (relative stereo)
8,271 to 272 °C,CC(=O)c1cc(Nc2nc(N)nc(N)n2)cc(C(C)=O)c1
9,149 to 150 °C,O=C(Nc1ccc(Cl)cc1C(=O)NCc1ccc2c(c1)OCO2)Oc1ccccc1
10,155 to 157 °C,O=C1c2cccc(-c3ccccc3)c2C2NCCN12 (centres undefined)
11,79 to 83 °C,O=C(O)C1Cc2ccccc2N1S(=O)(=O)c1ccc(-c2cc(C(F)(F)F)ccc2Cl)cc1 (centres undefined)
12,222 to 224 °C,CC(=O)c1c(C)c(C)c(C(C)=O)c2c1C(=O)c1ccccc1C2=O
13,177 to 179 °C,CCCCCCNc1ccc(Oc2ccc3nc(COc4ccc(CC5SC(=O)NC5=O)cc4)n(C)c3c2)cc1 (centres undefined)
